This is an account of results in US20230165864A1, “APPLICATION OF HETEROCYCLIC COMPOUND” (GUANGZHOU JOYO PHARMATECH CO., LTD, priority 2020, published 2023).

The conditions of series [1]: Phase III clinical trial (N=287); cited from earlier work.
The nature of series [2]: Clinical trial study of tablets containing compound 11A: fasting blood glucose and safety. It is filed as in vivo, human. On the procedure: The embodiments were all derived from a clinical trial study. The subjects were screened and eligible to enter groups according to the entry criteria specified in the clinical protocol. The test drug was administered orally on day 1, and adverse events and combined administration were observed and recorded after administration. After safety evaluation was conducted on day 7 of the single administration period, the subjects received continuous administration of the test drug until the subjects withdrew from the clinical trial. Safety assessments were conducted during the clinical trial according to the time specified in the clinical protocol.
Embodiments 2 to 9 were derived from an ongoing clinical trial study with dose groups of 0.1 mg, 0.2 mg, 0.4 mg, 0.5 mg, 0.7 mg, 0.9 mg, 1.1 mg, and 1.4 mg.

Series [3] can be described thus: Bioavailability experiments (pharmacokinetics) in beagle dogs. It is filed as in vivo. Particulars: male and female beagle dogs. On the procedure: Bioavailability Experiments
During the experimental period, animals were housed in single cages with animal identification codes marked on the cage tags. The 12 non-naïve beagle dogs (6/sex) were randomly divided into 2 groups (3/sex/group).
(1) Non-naïve beagle dogs were administered intravenously (solvent 50% PEG400+50% PBS) at a dose volume of 2 mL/kg per dog (dose of 0.1 mg/kg per dog), and then blood was collected to measure the plasma drug concentration of non-naïve beagle dogs at different time points of 15 minutes, 30 minutes, 1 hour, 2 hours, 4 hours, 6 hours, 8 hours, and 24 hours.
(2) Non-naïve beagle dogs were administered orally at a dose volume of 1 tablet per dog (dose of 0.5 mg per dog), and then blood was collected to measure the plasma drug concentration of non-naïve beagle dogs at different time points of 15 minutes, 30 minutes, 1 hour, 2 hours, 4 hours, 6 hours, 8 hours, and 24 hours; the oral bioavailability of tablets was calculated.
Plasma drug concentration data was processed in a non-compartment model using WinNonlin™ Version 6.2.1 (Pharsight, Mountain View, Calif.) pharmacokinetic software. The peak concentration (Cmax), peak time (Tmax) and quantifiable time were directly read out from the plasma drug concentration-time diagram.
The following pharmacokinetic parameters were calculated using the log-linear trapezoidal method: elimination phase half-life (T1/2), apparent volume of distribution (Vdss) and clearance rate (CL), mean residence time of the drug from 0 to the end time point in vivo (MRT0-last), mean residence time of the drug from 0 to infinite time in vivo (MRT0-inf), the area under the time-plasma concentration curve from 0 to the end time point (AUC0-last), the area under the time-plasma concentration curve from 0 to infinite time (AUC0-inf), initial concentration (C0).

`Cc1nc(NC(=O)N2CCC[C@H]2C(N)=O)sc1-c1ccnc(C(C)(C)C(F)(F)F)c1` [Alpelisib]: in series [1], the diarrhea incidence is given as 57.7%, the “diarrhea incidence above grade 3” value is listed as 6.7%, the nausea incidence is listed as 44.7% and the “nausea incidence above grade 3” value is 2.5%. Besides, in series [1], the vomiting incidence is recorded as 27.1% and the “vomiting incidence above grade 3” value is listed as 0.7%.
Broadly, the half-life is the time in which the quantity being followed falls by half. In general, clearance refers to a measure of how efficiently the substance is removed, as volume per time. Usually bioavailability stands for the share of a dose that reaches the circulation, judged against a reference dose that is usually intravenous. A low value points to poor availability. In the case of `COCCOc1cnc2ccc(-c3cnc(OC)c(NS(=O)(=O)c4sc(C)nc4C)c3)cn2c1=O` [Compound 11A], the fasting blood glucose in series [2] (Subject 1, tablet 0.1 mg once a day oral from Nov. 9, 2018, follow-up Mar. 14, 2019, baseline 5.64 mmol/L) came out at 6.19 mmol/L; in series [2] (Subject 2, tablet 0.2 mg once a day oral from Jan. 16, 2019, follow-up Jan. 23, 2019, baseline 5.81 mmol/L), 6.45 mmol/L; in series [2] (Subject 3, tablet 0.4 mg once a day oral from May 30, 2019, follow-up Jun. 5, 2019, baseline 5.63 mmol/L), 6.99 mmol/L; in series [2] (Subject 5, tablet 0.7 mg once a day oral from Nov. 7, 2019, follow-up Nov. 13, 2019, baseline 6.06 mmol/L), 8.37 mmol/L; in series [2] (Subject 5, tablet 0.7 mg once a day oral from Nov. 7, 2019, follow-up Nov. 20, 2019, baseline 6.06 mmol/L) it was 9.44 mmol/L; in series [2] (Subject 6, 0.7 mg tablet administered continuously again from Nov. 30, 2019, follow-up Dec. 4, 2019), 11.44 mmol/L. Moreover, the fasting blood glucose in series [2] (Subject 6, tablet 0.7 mg once a day oral from Nov. 21, 2019, follow-up Nov. 27, 2019, baseline 5.87 mmol/L) worked out at 11.4 mmol/L; in series [2] (Subject 7, tablet 0.7 mg once a day oral from Dec. 10, 2019, follow-up Jan. 20, 2020, baseline 5.92 mmol/L), 9.13 mmol/L; in series [2] (Subject 8, tablet 1.1 mg once a day oral from Dec. 17, 2019 (so in the source), measured Dec. 23, 2020, baseline 6.87 mmol/L) it was 12.66 mmol/L; in series [2] (Subject 9, tablet 1.4 mg once a day oral from Aug. 27, 2020, measured Sep. 2, 2020, baseline 5.94 mmol/L), 10.77 mmol/L. In addition, the “fasting blood glucose after stopping administration” value in series [2] (Subject 6, 0.7 mg tablets stopped Nov. 27, 2019, measured Nov. 29, 2019) was “returned to normal”. Also, the incidence of hyperglycemia in series [2] (subjects of dose groups 0.1-1.4 mg, during the administering period) was 80%. Besides, the “gastrointestinal side effects such as nausea, vomiting and diarrhea” value in series [2] (the 8 subjects of embodiments 2 to 9) was “no significant gastrointestinal side effects”. In addition, the Vd in series [3] (both sexes, dog, plasma, single intravenous injection 0.1 mg/kg, read-out: apparent volume of distribution (Vdss)) came out at 6.16 ± 1.91 L/kg. Besides, the AUC(0-t) in series [3] (both sexes, dog, plasma, single intravenous injection 0.1 mg/kg, read-out: area under the curve AUC0-last) came out at 0.114 ± 0.0276 µM·h. Further, the half-life in series [3] (both sexes, dog, plasma, single intravenous injection 0.1 mg/kg, read-out: mean plasma elimination phase half-life Tin (converted)) is 193 ± 109 min. The clearance in series [3] (both sexes, dog, plasma, single intravenous injection 0.1 mg/kg, read-out: plasma clearance rate (CL)) was 24.6 ± 6.66 mL/min/kg. The compound also gave a bioavailability in series [3] (both sexes, dog, plasma, single oral administration of tablet containing 0.5 mg of 11A (prescription of embodiment 1)) of 80.9%. Also, in series [3] (both sexes, dog, plasma, single oral administration of tablet containing 0.5 mg of 11A (prescription of embodiment 1), read-out: peak concentration (Cmax)), the Cmax was found to be 11.1 ± 2.08 nM. The compound also registered a peak times in series [3] (single oral administration of tablet containing 0.5 mg of 11A (prescription of embodiment 1)) of 1.00 ± 0.00 h.
